Source: patent US20130079309A1, “Method Of Treating Acute Lung Injury Using Sphingosine 1 Phosphate Analogs Or Sphingosine 1 Phosphate Receptor Agonists” (The Board of Trustees of the University of Illinois, priority 2010, published 2013)

Experiments:
[1] = test system: LPS-induced lung injury in C57BL/6 mice; conditions: single intraperitoneal injection; Peng et al., 2004; cited from earlier work
[2] = test system: bleomycin-induced ALI in C57/BL6 mice; conditions: Shea et al., 2010; cited from earlier work
[3] = test system: MLC; experiment: Western blotting of HPAEC lysates for phospho-MLC; assay type: cell-based, human; conditions: 5 min
Protocol: (§1) After treatment as outlined for individual experiments, confluent HPAEC were lysed for Western blotting with phospho-MLC, pan-MLC, phospho-ERK, or pan-ERK antibodies. […] Membranes were then immunoblotted with primary antibodies (1:500-1000, 4° C., overnight) followed by secondary antibodies conjugated to horseradish peroxidase (1:5000, room temperature, 30 min) and detected with enhanced chemiluminescence (Pierce ECL or SuperSignal West Dura; Pierce Biotechnology, Rockford, Ill.) on Biomax MR film (Carestream Health, Rochester, N.Y.).

[4] = test system: radiation-induced lung injury (RILI) in C57BL/6 mice; experiment: Murine model of RILI: BAL protein, BAL cell counts, BAL cytokines, EBD extravasation, body weight, lung histology; assay type: in vivo, mouse; conditions: for lung histology: inflammatory cell infiltration and interstitial edema induced by radiation: 0.1 mg/kg i.p. 2×/wk, 25 Gy; for lung histology: inflammatory cell infiltration and interstitial edema induced by radiation / BAL cell counts vs RILI-challenged controls / BAL protein vs RILI-challenged controls: 6 weeks; for BAL cell counts vs RILI-challenged controls / BAL protein vs RILI-challenged controls: 0.01 or 0.1 mg/kg i.p. 2×/wk from 1 wk before irradiation (20 Gy); for BAL cell counts vs RILI controls / BAL protein levels vs RILI controls: 3 times/wk from 1 wk before irradiation (20 Gy) up to 6 wks; for BAL cell counts vs RILI controls / BAL protein levels vs RILI controls / body weight loss after irradiation: simvastatin 10 mg/kg; for body weight loss after irradiation: analogs 0.1 mg/kg i.p., 3 times/wk from 1 wk before irradiation up to 6 wks
Protocol: Eight to 10-week-old C57BL/6J mice (Jackson Labs, Bar Harbor, Me.) were used for all studies in accordance with the University of Chicago Institutional Animal Care & Use Committee guidelines.
At the termination of each experiment, animals were euthanized by exsanguination under anesthesia in accordance with institutional guidelines. Both lungs were lavaged with 1.0 mL of Hank's buffered saline solution with the fluid allowed to equilibrate for 10 s before withdrawing. The pulmonary vasculature was perfused clear via the pulmonary artery with sterile phosphate-buffered saline (PBS). Both lungs were excised, weighed, and snap-frozen in liquid nitrogen for subsequent analysis. The BAL fluid collected was centrifuged at 500×g for 20 min at 4° C., and the supernatant was removed and recentrifuged at 12,000×g before snap-freezing. Cell pellets were resuspended in 0.5 mL of red blood cell lysis buffer (ACK Lysing Buffer; BioSource International, Camarillo, Calif.) for 20 min and then repelleted by centrifugation at 2500 rpm for 20 min at 4° C. The supernatant was decanted, and the cell pellet was resuspended in 0.2 mL of PBS for cellular analysis using a standard hemacytometer technique. A total of 300 BAL cells per slide were counted for cell differentials using a Diff-Quick-stained kit (Baxter Diagnostics, McGaw Park, Ill.). BAL protein concentrations were determined by a colorimetric BCA assay. Albumin concentrations in the BAL at 1:1000 and 1:100 dilutions, respectively, were quantitated by ELISA (Bethyl Labs, Montgomery, Tex.). To measure cytokines and chemokines, the BAL fluid was assayed with a Bioplex mouse cytokine kit (Bio-Rad, Hercules, Calif.) in accordance with the manufacturer's instructions.
All other chemicals were analytical or cell-culture grade and were obtained from various commercial sources. Evans Blue dye conjugated to albumin (EBA) was prepared by dissolving EBD to a concentration of 0.5% (5 mg/mL or 5.2 mM) in phosphate-buffered saline (PBS) (Ca^2+-Mg^2+ free; Invitrogen Corporation, Carlsbad, Calif.). To this solution, BSA was added to a final concentration of 4% (40 mg/mL or 0.6 mM), mixed well by stirring with a magnetic bar, allowed to stand for 30 min, and then sterile-filtered through a 0.22-μm syringe filter. The conjugate was stored in small aliquots at −80° C. To prevent cross-contamination, each aliquot was used only once in one animal and then discarded. 4, 6, 8, or 12 weeks after irradiation, the animals were injected with EBA via the jugular vein. At the end of exposure, the pulmonary circulation was flushed and lungs were harvested. Formamide extracts of lungs were prepared, with the initial modification that the homogenates were centrifuged at 12,000×g. Centrifugation at this relative centrifugal force (RCF) produced a compact pellet that allowed accurate measurement of the recovered volumes. Accurate estimation of such volumes is critical for calculating the final tissue dilution factor. Lungs, kidneys, and hearts from mice that were not injected with EBA were similarly extracted, to calculate the tissue-specific correction factors. […] Linear regression equations between absorbance at 740 nm (X) and 620 nm (Y) in tissue extracts of animals untreated with EBA were considered to be the tissue-specific correction factors. […] The EB concentration read in mg/mL was converted to μg/g wet weight of lungs using the dilution factor of the original homogenate as described above.
Eight to 10-week-old C57BL/6J mice (Jackson Labs, Bar Harbor, Me.) were used for all studies in accordance with the University of Chicago Institutional Animal Care & Use Committee guidelines. […] (FIG. 4A). Bronchoalveolar lavage (BAL) was performed as described above. BAL protein concentrations were determined by a colorimetric BCA assay. Albumin concentrations in the BAL at 1:1000 and 1:100 dilutions, respectively, were quantitated by ELISA (Bethyl Labs, Montgomery, Tex.).

[5] = target: T1, S1P receptor 1 (S1PR1) (Mus musculus, UniProt O08530); experiment: S1PR1 levels in lung homogenates of bleomycin mice by Western blotting; assay type: in vivo; conditions: 14 days after bleomycin
T1 construct: Lung homogenates were collected 14 days after bleomycin instillation; from tissue; host or cells: mouse lung (C57/BL6, bleomycin-injured)
Protocol: Lung homogenates were collected 14 days after bleomycin instillation. S1PR1 protein expression was determined by Western blotting (representative blots shown), quantified by densitometry, and normalized to actin concentration in the samples. Mean±S.D. is shown. N=2-3 animals per group.
As discussed above, (S)-FTY720-phosphonate maintains S1PR1 expression in mouse lungs after 24 hr relative to other S1PR1 agonists (FIG. 17). The data shown in FIG. 23 extend these observations to 14 days.

[6] = test system: ERK; experiment: Western blotting of HPAEC lysates for phospho-ERK; assay type: cell-based, human; conditions: 5 min
Protocol: as §1

T1 sequence (O08530 whole entry): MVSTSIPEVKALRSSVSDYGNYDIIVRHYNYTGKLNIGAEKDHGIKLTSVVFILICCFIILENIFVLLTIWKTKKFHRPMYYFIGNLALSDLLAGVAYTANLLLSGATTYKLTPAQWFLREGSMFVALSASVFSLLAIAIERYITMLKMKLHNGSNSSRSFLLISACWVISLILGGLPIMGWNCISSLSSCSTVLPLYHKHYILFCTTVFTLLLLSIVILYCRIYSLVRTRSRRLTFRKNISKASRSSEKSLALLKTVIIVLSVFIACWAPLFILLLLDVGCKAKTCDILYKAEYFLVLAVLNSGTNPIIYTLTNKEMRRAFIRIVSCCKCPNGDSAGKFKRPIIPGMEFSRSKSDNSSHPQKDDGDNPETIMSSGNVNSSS

Row | SMILES | murine LPS induced pulmonary injury, 24 hours after LPS [1] | lung injury and mortality in bleomycin-injured mice on prolonged exposure [2] | MLC phosphorylation [3] | lung histology: inflammatory cell infiltration and interstitial edema induced by radiation [4] | BAL cell counts vs RILI-challenged controls [4] | BAL protein vs RILI-challenged controls [4] | BAL cell counts vs RILI controls [4] | BAL protein levels vs RILI controls [4] | body weight loss after irradiation [4] | S1PR1 levels in lungs, compared to FTY720-treated animals [5] | ERK phosphorylation [6]
1 | CCCCCCCCc1ccc(CCC(N)(CO)CO)cc1 [FTY720, 2-amino-2-[2-(4-octylphenyl)ethyl]propane-1,3-diol] | attenuate murine LPS induced-pulmonary injury | increased lung injury and mortality | Neither FTY720 nor any of its analogs induced significant MLC phosphorylation | to a lesser extent | did not confer significant protection | did not confer significant protection | did not confer significant protection | did not confer significant protection | did not show any beneficial effect |  | 
2 | CCCCCCCCc1ccc(CC[C@@](N)(CO)CCP(=O)(O)O)cc1 [1S, (S)-3-amino-3-(hydroxymethyl)-5-(4-octylphenyl)pentylphosphonic acid] |  |  |  | markedly attenuated | significant decreases | significant decreases | significant decreases | significant decreases | did not lose weight | higher levels of S1PR1 | failed to induce phosphorylation
